# Like-named read-outs stand apart in the source and are kept apart here.
# Assays:
# [1] = Method: Female, athymic nude mice (aged 6-8 weeks) were randomized to one of 12 study arms (n=3 per arm) (Table 16) and weighed prior to dosing. Mice were dosed via oral gavage either once daily (QD), or bi-daily (BID) for five days. […] The vehicle for PF-06952229 (PF) was 10% DMSO, 40% PEG300, 5% tween-80, 45% saline. For the vehicle alone group in this study, the PF-06952229 vehicle was used. At the end of each day for 10 days, mice were weighed, and symptoms of toxicity (if present) were recorded. A qualitative determination of overall toxicity was made based on the number and severity of symptoms for each cohort. The safety margin was determined at the end of day 10 based on the following equation: (maximum tolerated dose)/(minimum effective dose).
# [2] = BID; in animal studies; cited from earlier work
# [3] = tested on: TGF-beta induced SMAD signaling; assay: RDSR (RD SMAD reporter) Cellular Reporter Assay; format: cell-based; details: Homo sapiens; 200 pg/ml rhTGF-beta1, 24 h; control compounds; read-out: RDSR reporter activity
# Method in brief: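 Human rhabdomyosarcoma RD cells stably carrying an SBE-driven luc2P luciferase reporter. Inhibition of SMAD signaling was quantified from ONE-Glo luminescence.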
# [4] = tested on: TGF-β1 mediated alpha-SMA expression in primary human bronchial fibroblasts derived from IPF patients; assay: Fibroblast to Myofibroblast Transformation (FMT) assay
# Method: To test the ability of compounds of the invention to inhibit the TGF-β1 dependent transition of fibroblasts to myofibroblasts in a relevant disease model of IPF, a study was carried out using an FMT assay employing lung fibroblasts from IPF patients. In this model the transition of fibroblasts to myofibroblasts is determined by the expression of the biomarker alpha smooth muscle actin (SMA).
# Each drug concentration condition was evaluated in biological duplicates. One hour after compound addition, cells were stimulated with 1.25 ng/ml of TGF-01 and cultured for 72 hours thereafter. At the end of 72 hours cells were fixed using formaldehyde. The results were generated using high content imaging after staining cells using the nuclear stain DAPI as well as evaluation of the expression of alpha SMA. […] As a negative control 0.1% DMSO was used matching the DMSO concentration in treated wells.
# [5] = tested on: bleomycin-induced lung fibrosis; assay: Bleomycin-induced lung fibrosis study; format: in vivo, mouse
# Source text: Fibrosis, the formation of excess connective tissue causing stromal hardening and scar formation is a hallmark of cancer. Up to 20% of cancers are linked to chronic, inflammation-related fibrosis, including hepatocellular, gastric, esophageal, head and neck, colon, pancreatic, cervix, and vulvar cancers. The contribution of fibrosis for early cancer development remains unclear; however, in some advanced solid tumors it is believed that fibrotic tissues act like a barrier, preventing therapeutic agents like chemotherapy or biologics from penetrating the tumor tissue. Additionally, strong fibrotic tissue is thought to contribute to excluding immune cells from entering the tumor core, creating immune excluded or immune desert phenotypes. To evaluate the anti-fibrotic properties of Ex-11, a prophylactic model of bleomycin-induced lung fibrosis in male C57BL/6 mice was utilized, and various endpoints evaluated.
# All mice in this study were 8-week-old male C57BL/6 mice purchased from Taconic. On Day −2 prior to bleomycin administration, all animals were weighed and distributed into groups with 10 mice each (Table 18) such that each group of animals contained animals of similar body weights.
# On day 0, animals were treated with 1.5 U/kg bleomycin (Blenoxane catalog number NDC 61703-323-22, Hospira Pharmaceutical) intratracheally, except Group 1, which was administered normal saline via oropharyngeal route to serve as the healthy naïve control group. Prophylactic treatment was administered from one day prior to bleomycin administration to day 21 post bleomycin administration. On Day 21, only the morning dose was administered. Animals were harvested on day 21 and lung weights were measured. Body weights of all mice was recorded at least three times a week beginning on Day −2 and ending on the day of harvest, Day 21. Pirfenidone was used as positive control compound, as it is an FDA-approved drug for the treatment of idiopathic pulmonary fibrosis (IPF) in humans. All compounds were prepared in 10% Tween-20 in water; a homogenous suspension was formulated using a magnetic stir bar.
# At the end of the study, total lung tissues were weighed and fixed for histological examination, which was conducted by a trained pathologist blinded to the treatment groups. Specifically, whole lungs from each mouse were paraffin-embedded in a single block. Two slides from each block were sectioned to the depth of the mainstem bronchi (near the center of each lobe) and stained with either hematoxylin and eosin (H&E) or Masson's trichrome (MT). Glass slides were evaluated using light microscopy by a board-certified veterinary pathologist. Lung sections were scored according to the methods described below, evaluating five randomly chosen fields in each tissue. Fixed lungs were sectioned, and consecutive tissue sections were stained with H&E or MT. Various pathological scoring parameters were used to determine the average Ashcroft score, as well as average inflammation and collagen deposition indicating fibrosis.
# Parameter of scoring formalin fixed lung sections:
# Modified Ashcroft Score: H&E-stained lung sections were scored according to the modified Ashcroft scale. Scores for five representative 200× microscopic fields per sample were averaged to obtain a mean score for each animal. […]
# KGN cells = assay: TGFβ induced proliferation, KGN; format: cell-based, human; details: TGFβ 1 ng/mL, 6 days, KGN (FoxL2 mutant)
# Method: (§1) KGN and COV434 cells were seeded in triplicate in 96 well culture plates and incubated in the presence or absence of TGFβ (1 ng/mL) for 6 or 7 days, respectively. Proliferation was measured by Cell Titer Glo.
# COV434 cells = assay: TGFβ induced proliferation, COV434; format: cell-based, human; details: TGFβ 1 ng/mL, 7 days, COV434 (FoxL2 wild-type)
# Method: as §1
compound,measurement,setting,value
CC(C)c1cnc(-c2cc(Cl)ccc2F)cc1Nc1ccncc1C(=O)NC(CO)CO [PF-06952229],tolerated dose,[1]; BID,50 mg/kg
same,dose at which mice experienced DLT,"[1]; mouse, in vivo",≥ 150 mg/kg
same,safety margin (maximum tolerated dose)/(minimum effective dose),"[1]; mouse, in vivo",~1.7 fold
same,minimum effective dose,[2],30 mg/kg
"Cc1cccc(-c2[nH]c(CNc3ccccc3F)nc2-c2ccc3ncnn3c2)n1 [Vactosertib, reference compound]",safety margin (maximum tolerated dose)/(minimum effective dose),"[1]; female, mouse, in vivo, 10 days",3.75-6 fold
same,IC50,[3],~7.9 nM
same,LogM IC50 αSMA,[4]; donor IPF05,−7.4 LogM
same,Max PIN (%),[4]; donor IPF05,32.7%
same,LogM IC50 αSMA,[4]; donor IPF06,−7.0 LogM
same,Max PIN (%),[4]; donor IPF06,112.1%
same,LogM IC50 αSMA,[4]; donor IPF08,−7.1 LogM
same,Max PIN (%),[4]; donor IPF08,104.0%
"Cc1ccc(=O)n(-c2ccccc2)c1 [pirfenidone, reference compound]",animals lost during the study,[5]; 100 mg/kg PO BID,Only one animal in the pirfenidone group was lost
same,total lung weight,"[5]; day 21, vs bleomycin/vehicle",significant decrease in lung weight
same,largest percent change in weight,"[5]; group 4, day 9, average",−1.2%
TGFβ: TGFβ cytokine used at 1 ng/mL to stimulate KGN and COV434 cells,proliferation (Cell Titer Glo),KGN cells,significantly increased
same,proliferation (Cell Titer Glo),COV434 cells,no change

# From patent US11746103B2, “ALK-5 inhibitors and uses thereof” (Sumitomo Pharma Oncology, Inc., priority 2020, dated 2023)
